Source: patent US20110044929A1, “FORMULATIONS AND METHODS FOR TREATMENT OF INFLAMMATORY DISEASES” (Vical Incorporated, priority 2004, published 2011)
Like-named read-outs stand apart in the source and are kept apart here.

Tests used:
HUVEC cells = experiment: Adenosine release from HUVEC by liquid chromatography; assay type: cell-based, human; conditions: over time, normoxic and hypoxic
Method: For this reason, studies were undertaken to determine the effect of certain poloxamers in vitro in human vascular endothelial cells (HUVEC) and human skeletal muscle myoblast (HSMM) cells under normoxic and hypoxic (5% O2) conditions. Production of adenosine, cytokines, growth factors, or a combination of these biologically relevant molecules was measured after exposure to either poloxamer-188 (˜BASF Pluronic F-68), poloxamer-235 (˜BASF Pluronic P85), cilostazol, Del-1 protein, or medium alone. Monitoring for generation of adenosine was conducted by HPLC. […] This increased level of adenosine was seen over time in both hypoxic and normoxic cells exposed to poloxamer-235.
HUVEC and HSMM cells are harvested after fourth population doubling from the time of purchase by trypsinization. The cells are suspended in appropriate complete medium and plated in a 60×15 culture dishes at the density of […] per well and incubated for 24 hrs. The cells are fed with EBM (HUVEC cells) and SkBM (HSMM cells) culture medium containing 0.5% FCS for 24 hrs to growth-arrest the cells. […]

[1] = tested on: patients with intermittent claudication; conditions: cited from earlier work
[2] = tested on: patients with intermittent claudication; conditions: Lederman et al. 2002; cited from earlier work
CD-1 mice = experiment: Murine hindlimb ischemia model; assay type: in vivo, mouse; conditions: repeated intramuscular injections
Text: A gene-based approach to Del-1 delivery using a plasmid vector was developed for the purpose of enhancing relatively sustained local concentrations with a consequent reduction in systemic exposure to the angiogenic growth factor while at the same time avoiding known adverse effects that may arise with the use of a viral platform.
Results from preclinical studies with recombinant murine Del-1 protein and with formulated Del-1 plasmid compared favorably to results obtained with bFGF and VEGF165. In-house research provided for selection of the non-ionic polymer poloxamer 188 as an important constituent for a pharmaceutical formulation of the Del-1 gene encoded on plasmid DNA. The poloxamer formulation was developed after considerable research to provide for a compound that would give increased expression over DNA in saline.
The effects of formulated hDel-1 plasmid versus formulated VEGF165 plasmid and empty plasmid were investigated in a murine hindlimb ischemia model. Bilateral ischemia was induced in hindlimbs of CD-1 mice by ligation of the femoral artery. A control group underwent sham surgery without femoral artery ligation. […] Exercise tolerance was then determined at weekly intervals through four weeks post surgery.

mice = experiment: Subcutaneous Matrigel implant model; assay type: in vivo, mouse
Text: Poloxamer Inhibition of Inflammation in Murine Study: Initial studies incorporating either FGF (positive control), saline (negative control), Del-1 protein (another known angiogenic agent) or poloxamer-188 into Matrigel that was placed subcutaneously into the lower abdomen of mice yielded interesting results. Matrigel Basement Membrane Matrix (BD Biosciences) is a solubilized basement membrane preparation extracted from the Engelbreth-Holm-Swarm (EHS) mouse sarcoma. Its major component is laminin, followed by collagen IV, heparan sulfate proteoglycans, entactin and nidogen. In the Matrigel angiogenesis model, poloxamer-188 was compared to other known angiogenic agents such as fibroblast growth factor (FGF, positive control), Del-1 protein, or saline as a negative control.
After gaining experience with the system, it was felt that the quantity of Del-1 used should be titrated to see if a dose response with the protein could be distinguished, and to alter the ratio of P188 to matrigel. In the first round of studies it was noted that the 5% P188 concentration added to the Matrigel appeared to inhibit polymerization of the Matrigel. […] Therefore, in the repeat in vivo experiment the Matrigel and poloxamer concentrations were altered such that the initial concentrations were similar to those that yielded good polymerization, but still gave a final concentration of 5% P188 (the concentration tested in clinical trials).
Matrigel implants were placed subcutaneously in the lower abdominal/inguinal region of mice and harvested 4 to 7 days later.

For `O=C1CCc2cc(OCCCCc3nnnn3C3CCCCC3)ccc2N1` [cilostazol], the “adenosine in the supernatant” value (HUVEC cells) is given as “least stimulatory”, the peak walking time ([1]; 100 mg twice/day) is given as “improve peak walking time” and the “observed difference in change in PWT versus placebo” value ([1]; Dawson et al. 1998) is given as 2.00 min. For the same molecule, the “side effects (headaches, palpitations, gastrointestinal disturbances)” value ([1]; clinical trials) was “high incidence of side effects”.

In the case of “recombinant fibroblast growth factor-2: recombinant fibroblast growth factor-2 of the TRAFFIC study”, the “observed difference in change in PWT versus placebo” value [2] is listed as 1.17 min.

B1: Del-1 protein: Developmentally regulated Endothelial Locus-1, an endothelial cell stimulating angiogenic protein (protein, UniProt O43854 24-480, looked up)
EGF-like repeat and discoidin …: DICDPNPCENGGICLPGLADGSFSCECPDGFTDPNCSSVVEVASDEEEPTSAGPCTPNPCHNGGTCEISEAYRGDTFIGYVCKCPRGFNGIHCQHNINECEVEPCKNGGICTDLVANYSCECPGEFMGRNCQYKCSGPLGIEGGIISNQQITASSTHRALFGLQKWYPYYARLNKKGLINAWTAAENDRWPWIQINLQRKMRVTGVITQGAKRIGSPEYIKSYKIAYSNDGKTWAMYKVKGTNEDMVFRGNIDNNTPYANSFTPPIKAQYVRLYPQVCRRHCTLRMELLGCELSGCSEPLGMKSGHIQDYQITASSIFRTLNMDMFTWEPRKARLDKQGKVNAWTSGHNDQSQWLQVDLLVPTKVTGIITQGAKDFGHVQFVGSYKLAYSNDGEHWTVYQDEKQRKDKVFQGNFDNDTHRKNVIDPPIYARHIRILPWSWYGRITLRSELLGCTEEE
For B1, the “adenosine in the supernatant” value (HUVEC cells) was “least stimulatory”, the vascular perfusion (CD-1 mice) was “increased vascular perfusion” and the “cellular response of Matrigel implant” value (mice; Del-1 less than 200 ugs/ml) was “substantially less cellular response”. For the same molecule, the “vessel growth in Matrigel angiogenesis model” value (mice; first round of studies) was “light to moderate vessel growth” and the “morphologic pattern of Matrigel implant (cellularity)” value (mice; harvested 4 to 7 days, H&E, Del-1 at 200 ug/ml) was “high cellularity”.
